In US20020001582A1, “Methods and compositions for inhibiting microbial growth” (priority 1999, published 2002):

System: Sclerotinia homoeocarpa
Test: Protective treatment of mature bentgrass (lysozyme 24 hours before inoculation)
Format: in vivo
Method: One year old bentgrass (Agrotis spp.) cv Pennlink was used as the host in this trial. It was grown in an open field at Select Sand Farm in Fort Langley, B.C. Round pieces of turfgrass, 6 cm diameter, were cut out and placed on 5 cm high pots (made from PVC pipes) containing steam sterilized river washed sand. The potted grass was regularly watered, fertilized and maintained at a cutting height of approximately 2.0 cm above the soil surface.
The efficacy of egg white lysozyme was tested on Sclerotinia homoeocarpa. Virulent isolates of the test fungi were grown on a rye grain medium for approximately one week. This medium consisted of 50 g of rye grain, 1 g of CaCO3, and 75 ml of water. The medium was prepared in a 250 ml Erlenmeyer flask and autoclaved for 30 minutes. Three to five plugs of the actively growing mycelia from one-week-old culture on potato dextrose agar were transferred into flasks, and incubated in the dark at room temperature.
Lysozyme was applied with a hand held spray bottle. Treated and untreated bentgrass was then inoculated with the test fungi by placing 3 infected rye kernels in the center of the pot, just above the soil surface. After inoculation, the pots were placed in humidity chambers on a greenhouse bench. […]
Pots were removed from the humidity chamber and evaluated individually for disease severity. […]

lysozyme: type c egg white lysozyme, enzyme of approximately 129 amino acids; commercially available from Canadian Inovatech, Inc.
differences in disease severity among the three lysozyme concentrations (5,000, 10,000, 20,000 ppm): no significant differences
disease severity compared to the untreated control (5,000, 10,000 or 20,000 ppm, day 7, 10 or 21 after inoculation, p≦0.01): significant reductions
